# According to patent US5115099A, “Substrates for determination of enzyme activity and intermediates for synthesis of the substrates as well as process for producing the intermediates” (Nitto Boseki Co., Ltd., priority 1988, dated 1992):
# Counter-ions that a name gives are not always drawn. Where a SMILES comes first, the peptide text is derived from it.
# Legend:
# Trypsin = target: T1, Trypsin (Bos taurus, UniProt P00760); test: Relative reactivity of substrate with trypsin (absorbancy at 405 nm); format: biochemical, Bovine; conditions: substrate 10 mM/l; trypsin 0.07 U/ml; Tris 50 mmol, NaCl 150 mmol, pH 8.1; 37° C. 10 minutes; absorbancy 405 nm; relative to S-2222 10 mM = 1.0
# T1 construct: purchased Boehringer
# T1 sequence (P00760 24-246): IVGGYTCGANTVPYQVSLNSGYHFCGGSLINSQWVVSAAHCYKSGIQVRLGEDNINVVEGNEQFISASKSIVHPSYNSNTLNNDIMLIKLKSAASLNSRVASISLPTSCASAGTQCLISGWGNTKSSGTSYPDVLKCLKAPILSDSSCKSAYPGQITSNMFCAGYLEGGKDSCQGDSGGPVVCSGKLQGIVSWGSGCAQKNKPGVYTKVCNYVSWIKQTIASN
# Method: (§1) Specificity of the synthesized new substrate was examined by reacting with each enzyme. Details of reagents used are as describved below.
# (§2) (2) Buffer: Kind of buffer, NaCl and its concentration and pH (25° C.) were set as shown below depending upon enzyme. […]
# (§3) (3) Enzyme used: Enzyme used and its source, etc. are as follows. […]
# (§4) (4) Terminate solution: 10% acetic acid aqueous solution.
# (§5) Buffer, 0.5 ml and 0.1 ml of substrate solution are charged in a silicone-treated hard glass test tube or plastic test tube. The mixture is previously heated for 10 minutes in a thermostat at 37° C. Then, 0.05 ml of enzyme reagent is added to the mixture to perform enzyme reaction at 37° C. for 10 minutes.
# Accurately 10 minutes after, 2.5 ml of the terminate solution is added to stop the enzyme reaction. Then the reaction mixture is allowed to stand at 37° C for 10 minutes and its absorbancy is measured at 405 nm.
# (§6) Values in the tables indicate relative values when absorbancy of substrate S-2222, 10 mM, was made 1.0.
# [1] = target: T2, α2 -macroglobulin-trypsin complex (α2 M-Try) (Bos taurus, UniProt P00760); test: Relative reactivity of substrate with α2 M-Try (absorbancy at 405 nm); format: biochemical, Bovine; conditions: substrate 10 mM/l; α2 M-Try 1/20 dilution; Bistrispropane 100 mmol, NaCl 150 mmol, pH 8.7; 37° C. 10 minutes; absorbancy 405 nm; relative to S-2222 10 mM = 1.0
# T2 construct: purchased SIGMA (Try); Boehringer (α2 M)
# T2 sequence (P00760 24-246): T1 sequence (P00760 24-246)
# T2 sequence (Q7SIH1 24-1510 partner): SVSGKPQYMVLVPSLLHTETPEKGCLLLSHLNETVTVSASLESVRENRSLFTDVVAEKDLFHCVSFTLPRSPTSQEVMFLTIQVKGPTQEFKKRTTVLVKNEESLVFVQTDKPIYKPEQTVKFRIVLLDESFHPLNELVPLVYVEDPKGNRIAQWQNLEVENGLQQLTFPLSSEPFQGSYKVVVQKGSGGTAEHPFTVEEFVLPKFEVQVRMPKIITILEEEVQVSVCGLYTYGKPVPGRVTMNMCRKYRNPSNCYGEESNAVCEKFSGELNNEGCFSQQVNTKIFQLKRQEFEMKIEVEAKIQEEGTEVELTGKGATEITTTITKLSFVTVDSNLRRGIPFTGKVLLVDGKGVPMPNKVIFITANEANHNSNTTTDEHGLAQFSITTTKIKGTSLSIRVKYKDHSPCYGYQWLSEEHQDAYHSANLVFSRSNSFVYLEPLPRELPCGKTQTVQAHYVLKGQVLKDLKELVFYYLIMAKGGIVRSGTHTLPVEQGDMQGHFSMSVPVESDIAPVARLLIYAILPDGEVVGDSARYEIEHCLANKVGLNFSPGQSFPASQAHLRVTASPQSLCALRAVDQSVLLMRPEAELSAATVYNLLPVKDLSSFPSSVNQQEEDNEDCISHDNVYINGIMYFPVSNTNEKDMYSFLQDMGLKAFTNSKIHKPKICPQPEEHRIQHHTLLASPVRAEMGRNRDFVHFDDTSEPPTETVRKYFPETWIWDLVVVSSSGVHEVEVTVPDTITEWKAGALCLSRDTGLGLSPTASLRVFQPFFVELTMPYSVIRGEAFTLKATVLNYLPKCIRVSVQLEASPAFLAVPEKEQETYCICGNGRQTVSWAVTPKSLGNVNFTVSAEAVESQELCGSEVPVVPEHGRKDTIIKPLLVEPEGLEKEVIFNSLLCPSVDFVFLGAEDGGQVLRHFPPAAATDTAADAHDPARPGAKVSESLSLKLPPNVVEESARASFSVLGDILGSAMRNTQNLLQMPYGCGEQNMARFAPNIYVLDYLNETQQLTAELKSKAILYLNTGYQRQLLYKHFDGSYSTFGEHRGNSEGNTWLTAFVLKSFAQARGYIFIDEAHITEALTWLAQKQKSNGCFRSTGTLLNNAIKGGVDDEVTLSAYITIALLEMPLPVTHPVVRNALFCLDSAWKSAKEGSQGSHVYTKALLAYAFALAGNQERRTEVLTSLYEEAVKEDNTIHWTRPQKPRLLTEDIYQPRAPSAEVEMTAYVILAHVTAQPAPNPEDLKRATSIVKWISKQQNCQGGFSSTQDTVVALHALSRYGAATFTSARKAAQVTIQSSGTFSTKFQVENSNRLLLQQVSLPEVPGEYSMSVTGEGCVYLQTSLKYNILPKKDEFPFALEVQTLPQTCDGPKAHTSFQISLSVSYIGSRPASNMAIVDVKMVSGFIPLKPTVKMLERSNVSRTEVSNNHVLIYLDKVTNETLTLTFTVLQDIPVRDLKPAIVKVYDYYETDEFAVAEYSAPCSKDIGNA
# Method: as §1, §2, §3, §4
# Buffer, 0.5 ml and 0.1 ml of substrate solution are charged in a silicone-treated hard glass test tube or plastic test tube. The mixture is previously heated for 5 minutes in a thermostat at 37° C.
# Then, 0.05 ml of enzyme reagent is added to the mixture to perform enzyme reaction at 37° C. for 10 minutes.
# Accurately 10 minutes after, 1.0 ml of the terminate solution is added to stop the enzyme reaction. Then the reaction mixture is allowed to stand at 37° C. for 10 minutes and its absorbancy is measured at 405 nm.
# as §6
# Normal serum = test: Relative reactivity of substrate with normal serum (absorbancy at 405 nm); format: biochemical; conditions: substrate 10 mM/l; undiluted human normal serum; Tris 50 mmol, NaCl 150 mmol, pH 8.5; 37° C. 5 minutes; absorbancy 405 nm; relative to S-2222 10 mM = 1.0
# Method: as §1, §2, §3
# Normal Human -- -- undiluted
# as §4
# as §5, with “5” for “10”, “0.1” for “0.05”, “normal serum” for “enzyme reagent”
# Accurately 5 minutes after, 2.0 ml of the terminate solution is added to stop the enzyme reaction. Then the reaction mixture is allowed to stand at 37° C. for 10 minutes and its absorbancy is measured at 405 nm.
# as §6
# [2] = Solubility of the substrates in water; format: physicochemical
# From the text: (B) Solubility of the substrates of this invention and known substrates in water were examined.
Molecule,Relative Reactivity to Enzyme (relative value of absorbance) Try (Trypsin),Relative Reactivity to Enzyme (relative value of absorbance) α2 M-Try [1],Relative Reactivity to Enzyme (relative value of absorbance) Normal Serum (Normal serum),Solubility [2]
"CC(C)[C@H](NC(=O)OCc1ccccc1)C(=O)NCC(=O)N[C@@H](CCCNC(=N)N)C(=O)Nc1ccc([N+](=O)[O-])cc1 [CHR-TRY, Z-Val-Gly-Arg-pNA-HCl, reference compound] (HELM PEPTIDE1{[O=C(OCc1ccccc1)[*:2]].V.G.R.[O=[N+]([O-])c1ccc(N[*:1])cc1]}$$$$V2.0)",0.50,0.73,1.70,insoluble
"Cl.Cl.NC(N)=NCCC[C@H](NC(=O)CNC(=O)[C@H](N)CCC(=O)OCc1ccccc1)C(=O)Nc1ccc([N+](=O)[O-])cc1 [Substrate No. 2] (HELM PEPTIDE1{[dE].G.R.[O=[N+]([O-])c1ccc(N[*:1])cc1]}|CHEM1{[c1ccc(CO[*:1])cc1]}$PEPTIDE1,CHEM1,1:R3-1:R1$$$V2.0)",0.71,1.01,0.12,
"CC(C)OC(=O)CC[C@@H](N)C(=O)NCC(=O)N[C@@H](CCCN=C(N)N)C(=O)Nc1ccc([N+](=O)[O-])cc1.Cl.Cl [Substrate No. 3] (HELM PEPTIDE1{[dE].G.R.[O=[N+]([O-])c1ccc(N[*:1])cc1]}|CHEM1{[CC(C)O[*:1]]}$PEPTIDE1,CHEM1,1:R3-1:R1$$$V2.0)",0.67,1.20,0.41,
CCCN(CCC)C(=O)CC[C@@H](N)C(=O)NCC(=O)N[C@@H](CCCN=C(N)N)C(=O)Nc1ccc([N+](=O)[O-])cc1.Cl.Cl [Substrate No. 21],0.74,1.46,0.20,
H-D-Glu(OCH.(C2 H5)2)-Gly-Arg-ANBS.2HCl [Substrate No. 1],0.84,1.19,0.03,

# The next lines start with results.
Relative Reactivity to Enzyme (relative value of absorbance) Try (Trypsin),Relative Reactivity to Enzyme (relative value of absorbance) α2 M-Try [1],Relative Reactivity to Enzyme (relative value of absorbance) Normal Serum (Normal serum),Molecule,Solubility [2]
0.39,0.68,5.50,"Cl.Cl.NC(N)=NCCC[C@H](NC(=O)[C@@H]1CCCCN1C(=O)[C@H](N)Cc1ccccc1)C(=O)Nc1ccc([N+](=O)[O-])cc1 [S-2238, HDPhePipArgpNA.2HCl, reference compound]",
1.0,1.0,1.0,"Bz-Ile-Glu(OR)-Gly-Arg-pNA.HCl; R=H and CH3 [S-2222, reference compound]",6 mM/l
